# How the values were obtained:
# Wistar rats [1] = settings: general statement on standards; cited from earlier work
# male NIH Swiss mice [2] = assay: Marble burying assay; assay type: in vivo, mouse; settings: with rotorod performance
# Text: Marble burying in mice has been used to model anxiety disorders including obsessive-compulsive disorders (OCD) due to ethological study of the behavior (e.g. Gyertyan I. “Analysis of the marble burying response: Marbles serve to measure digging rather than evoke burying”, Behavioural Pharmacology 6: 24-31, (1995)) and due to the pharmacological effects of clinical standards (c.f., Njung'E K. Handley S L. “Evaluation of marble-burying behavior as a model of anxiety”, Pharmacology, Biochemistry & Behavior. 38: 63-67, (1991)); Borsini F., Podhorna J., and Marazziti, D. “Do animal models of anxiety predict anxiolytic effects of antidepressants?”, Psychopharmacology 163: 121-141, (2002)).
# House experimentally-naïve male, NIH Swiss mice (Harlan Sprague-Dawley, Indianapolis, Ind.) weighing between 28-35 g in groups of 12 for at least three days prior to testing in a vivarium with 12 h light and dark cycles. Conduct experiments during the light cycle in a dimly lit experimental testing room. Dose mice with vehicle or test compound and, after a specified pretreatment interval (generally 30 min.), place each mouse individually on a rotorod (Ugo Basile 7650) operating at a speed of 6 revolutions/min. and observe for falling. […]
# Clinically effective standard compounds suppress marble burying at doses that are devoid of motor-impairing effects as measured on the rotorod. […]
# male NIH Swiss mice [3] = assay: Nestlet shredding; assay type: in vivo, mouse; settings: with rotorod / motor effects
# Text: Mice naturally will construct nests of material available in their living environment. Since this behavior is obsessive in nature, it has been used to model OCD (Xia Li, Denise Morrow and Jeffrey M. Witkin, “Decreases in nestlet shredding of mice by serotonin uptake inhibitors: comparison with marble burying”, Psychopharmacology, submitted Jul. 14, 2003). House experimentally-naïve male, NIH Swiss mice (Harlan Sprague-Dawley, Indianapolis, Ind.) weighing between 28-35 g in groups of 12 for at least three days prior to testing in a vivarium with a 12 h light/dark cycle. Conduct experiments during the light cycle in an experimental room with normal overhead fluorescent lighting. Dose mice with vehicle or test compound and after a specified pretreatment interval (generally 30 min.), place the mice individually in a 17×28×12 cm high plastic tub with about 5 mm sawdust shavings on the floor along with a pre-weighed multi-ply gauze pad (51 mm square). After 30 min., weigh the remainder of the gauze pad not removed by the mouse. Determine the weight of the gauze used for nestlet construction by subtraction. Compare the results for test compound treated mice to the results for vehicle control treated mice with Dunnett's test.
# Clinically effective OCD treatment standard compounds suppress nestlet shredding at doses that are devoid of motor-impairing effects as measured by the rotorod test. […]
# Wistar rats [4] = assay: Schedule-induced polydipsia; settings: rat, in vivo
# Text: Food-deprived rats exposed to intermittent presentations of food will drink amounts of water that are far in excess of their normal daily intake and in excess of their intake when given all of their food at one time (Falk J L. “Production of polydipsia in normal rats by an intermittent food schedule”, Science 133: 195-196, (1961)). This excessive behavior is persistent and has been used to model OCD.
# Maintain Wistar rats on a food restricted diet (to maintain 85% free feeding weight), but with free access to water. Train the rats in a behavioral testing chamber to press a lever to receive a food pellet under a fixed interval schedule, such that the rats are rewarded with a 45 mg food pellet the first time they press a lever after a 120 second interval has elapsed. The fixed interval is then reset to 120 seconds and the process repeated. Thus, during a 90 min. test session, the rats can earn a maximum of 45 pellets. The behavioral chamber is also equipped with a water bottle that is weighed before and after the session to determine the amount of water consumed.
# Administer test compounds on Tuesdays and Fridays. […] Compare the rates of lever pressing and water consumption for each animal's performance during sessions after test compound treatment with that animal's performance during control sessions, expressed as a percent of the control rate. […]
# male NIH Swiss mice [5] = settings: background statement; cited from earlier work
smiles,measurement,setting,value
CN(C)CCCN1c2ccccc2CCc2ccc(Cl)cc21 [chlomipramine],"schedule-induced polydipsia, clinically effective OCD standard compounds",Wistar rats [1],"suppress schedule-induced polydipsia without producing notable changes in motor patterns, food intake, or behavior the following day"
CN(C)CCCN1c2ccccc2Sc2ccc(Cl)cc21 [chlorpromazine],marble burying behavior,male NIH Swiss mice [2],decrease marble burying only at doses that also disrupt rotorod performance
C[C@H](N)Cc1ccccc1 [d-amphetamine],nestlet shredding,male NIH Swiss mice [3],decreases nestlet shredding only at doses that produce motoric side effects
same,schedule-induced polydipsia (excessive drinking),Wistar rats [4],decreases excessive drinking only at behaviorally stimulating doses
same,suppression of excessive drinking with co-administration of the 5-HT2C antagonist,Wistar rats [4],not prevented
CNCCC(Oc1ccc(C(F)(F)F)cc1)c1ccccc1 (stereo not shown) [fluoxetine],"schedule-induced polydipsia, clinically effective OCD standard compounds",Wistar rats [1],"suppress schedule-induced polydipsia without producing notable changes in motor patterns, food intake, or behavior the following day"
same,marble burying (literature),male NIH Swiss mice [5],decrease burying
